Earlier results in patent publication US11304902B2, “Pharmaceutical compositions, preparation and uses thereof” (CURADIGM SAS, priority 2014, dated 2022).
Entries after “also recorded” stand apart in the source; their conditions may differ.

Key:
Details in all cases: human CYP enzyme
CYP1A1 = target: T1, CYP1A1 (Homo sapiens, UniProt P04798)
T1 sequence (P04798 1-512): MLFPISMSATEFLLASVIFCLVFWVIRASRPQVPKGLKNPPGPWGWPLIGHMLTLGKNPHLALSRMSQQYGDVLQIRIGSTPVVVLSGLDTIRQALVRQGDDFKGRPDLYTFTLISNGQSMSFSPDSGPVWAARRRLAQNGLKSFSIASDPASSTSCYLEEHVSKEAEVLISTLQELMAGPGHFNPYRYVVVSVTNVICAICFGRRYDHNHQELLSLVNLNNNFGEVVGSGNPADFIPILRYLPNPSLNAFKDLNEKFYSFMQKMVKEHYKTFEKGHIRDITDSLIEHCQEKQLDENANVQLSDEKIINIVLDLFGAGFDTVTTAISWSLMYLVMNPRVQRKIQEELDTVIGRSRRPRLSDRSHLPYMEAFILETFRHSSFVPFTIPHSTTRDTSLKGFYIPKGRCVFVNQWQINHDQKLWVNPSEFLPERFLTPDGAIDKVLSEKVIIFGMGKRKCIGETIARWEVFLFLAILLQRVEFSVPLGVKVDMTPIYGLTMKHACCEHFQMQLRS

CYP1A2 = target: T2, CYP1A2 (Homo sapiens, UniProt P05177)
T2 sequence (P05177 1-516): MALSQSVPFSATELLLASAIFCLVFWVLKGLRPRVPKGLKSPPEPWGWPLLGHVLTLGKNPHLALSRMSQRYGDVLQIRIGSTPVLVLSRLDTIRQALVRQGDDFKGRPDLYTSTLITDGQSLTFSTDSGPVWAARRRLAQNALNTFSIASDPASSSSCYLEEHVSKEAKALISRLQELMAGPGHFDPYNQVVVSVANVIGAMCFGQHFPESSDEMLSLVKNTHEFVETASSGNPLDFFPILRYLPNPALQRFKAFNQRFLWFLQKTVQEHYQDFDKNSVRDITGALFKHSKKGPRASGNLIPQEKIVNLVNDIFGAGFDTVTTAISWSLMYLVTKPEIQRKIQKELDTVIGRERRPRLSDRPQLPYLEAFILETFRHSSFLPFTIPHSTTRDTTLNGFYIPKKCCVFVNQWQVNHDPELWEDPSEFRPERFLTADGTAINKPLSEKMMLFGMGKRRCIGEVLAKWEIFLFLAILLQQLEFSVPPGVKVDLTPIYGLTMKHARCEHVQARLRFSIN

CYP1B1 = target: T3, CYP1B1 (Homo sapiens, UniProt Q16678)
T3 sequence (Q16678 1-543): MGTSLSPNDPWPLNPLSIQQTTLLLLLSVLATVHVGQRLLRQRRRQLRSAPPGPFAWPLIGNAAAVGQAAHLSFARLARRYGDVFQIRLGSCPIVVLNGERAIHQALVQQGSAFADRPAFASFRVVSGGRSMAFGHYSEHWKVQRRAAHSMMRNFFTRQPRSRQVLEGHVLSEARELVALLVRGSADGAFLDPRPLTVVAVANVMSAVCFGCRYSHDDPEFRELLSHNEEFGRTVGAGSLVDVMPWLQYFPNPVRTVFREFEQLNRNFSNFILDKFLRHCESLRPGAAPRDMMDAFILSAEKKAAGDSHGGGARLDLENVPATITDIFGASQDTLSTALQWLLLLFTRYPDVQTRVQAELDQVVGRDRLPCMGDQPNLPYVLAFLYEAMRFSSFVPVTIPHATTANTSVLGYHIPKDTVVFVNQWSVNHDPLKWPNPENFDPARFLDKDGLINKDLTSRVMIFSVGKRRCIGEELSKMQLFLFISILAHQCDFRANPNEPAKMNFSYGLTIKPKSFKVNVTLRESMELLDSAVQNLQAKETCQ

CYP2C8 = target: T4, CYP2C8 (Homo sapiens, UniProt P10632)
T4 sequence (P10632 1-490): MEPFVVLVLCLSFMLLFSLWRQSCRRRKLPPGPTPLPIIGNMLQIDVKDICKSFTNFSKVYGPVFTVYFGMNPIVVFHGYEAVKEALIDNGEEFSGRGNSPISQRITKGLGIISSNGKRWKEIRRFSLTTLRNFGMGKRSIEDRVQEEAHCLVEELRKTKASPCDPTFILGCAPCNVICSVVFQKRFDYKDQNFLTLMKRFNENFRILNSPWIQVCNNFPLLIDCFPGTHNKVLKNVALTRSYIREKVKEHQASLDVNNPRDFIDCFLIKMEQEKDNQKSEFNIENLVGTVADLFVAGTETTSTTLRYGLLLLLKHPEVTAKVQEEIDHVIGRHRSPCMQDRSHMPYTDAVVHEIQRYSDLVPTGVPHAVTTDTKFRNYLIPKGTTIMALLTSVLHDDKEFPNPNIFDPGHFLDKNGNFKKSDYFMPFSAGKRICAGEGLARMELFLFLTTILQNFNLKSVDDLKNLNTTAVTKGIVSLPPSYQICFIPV

CYP2C9 = CYP2C9 (Homo sapiens, UniProt P11712)
CYP2C19 = CYP2C19 (Homo sapiens, UniProt P33261)
CYP2E1 = CYP2E1 (Homo sapiens, UniProt P05181)
CYP3A4 = CYP3A4 (Homo sapiens, UniProt P08684)
CYP4B1 = CYP4B1 (Homo sapiens, UniProt P13584)
CYP4F2 = target: T5, CYP4F2 (Homo sapiens, UniProt P78329)
T5 sequence (P78329 5-520): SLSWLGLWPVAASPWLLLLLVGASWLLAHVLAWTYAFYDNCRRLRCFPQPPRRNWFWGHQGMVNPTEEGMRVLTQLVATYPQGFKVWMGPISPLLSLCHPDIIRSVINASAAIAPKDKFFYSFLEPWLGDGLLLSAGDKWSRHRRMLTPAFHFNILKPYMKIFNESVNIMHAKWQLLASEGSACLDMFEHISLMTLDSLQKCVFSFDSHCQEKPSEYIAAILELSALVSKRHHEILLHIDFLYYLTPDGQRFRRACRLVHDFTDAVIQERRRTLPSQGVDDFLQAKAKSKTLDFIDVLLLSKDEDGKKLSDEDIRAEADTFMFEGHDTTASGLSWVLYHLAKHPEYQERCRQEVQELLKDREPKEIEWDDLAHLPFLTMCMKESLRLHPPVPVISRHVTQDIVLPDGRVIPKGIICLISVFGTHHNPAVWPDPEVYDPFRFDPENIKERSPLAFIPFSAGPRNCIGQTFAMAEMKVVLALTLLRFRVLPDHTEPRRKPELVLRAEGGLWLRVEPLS

Chain of CYP2C9 (P11712 whole entry): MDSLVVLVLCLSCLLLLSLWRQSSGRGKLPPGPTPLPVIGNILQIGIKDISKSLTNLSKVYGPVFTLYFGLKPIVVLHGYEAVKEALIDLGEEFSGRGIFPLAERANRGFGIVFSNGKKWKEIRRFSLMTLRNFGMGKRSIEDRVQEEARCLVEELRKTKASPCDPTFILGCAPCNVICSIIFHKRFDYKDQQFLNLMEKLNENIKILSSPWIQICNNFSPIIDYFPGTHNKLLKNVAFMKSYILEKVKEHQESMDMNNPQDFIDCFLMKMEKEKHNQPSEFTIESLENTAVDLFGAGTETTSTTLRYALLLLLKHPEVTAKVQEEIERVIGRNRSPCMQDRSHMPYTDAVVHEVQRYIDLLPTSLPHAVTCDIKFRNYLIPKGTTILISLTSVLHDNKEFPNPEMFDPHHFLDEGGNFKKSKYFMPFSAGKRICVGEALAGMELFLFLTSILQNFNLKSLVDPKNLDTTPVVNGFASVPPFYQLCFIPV
Chain of CYP3A4 (P08684 whole entry): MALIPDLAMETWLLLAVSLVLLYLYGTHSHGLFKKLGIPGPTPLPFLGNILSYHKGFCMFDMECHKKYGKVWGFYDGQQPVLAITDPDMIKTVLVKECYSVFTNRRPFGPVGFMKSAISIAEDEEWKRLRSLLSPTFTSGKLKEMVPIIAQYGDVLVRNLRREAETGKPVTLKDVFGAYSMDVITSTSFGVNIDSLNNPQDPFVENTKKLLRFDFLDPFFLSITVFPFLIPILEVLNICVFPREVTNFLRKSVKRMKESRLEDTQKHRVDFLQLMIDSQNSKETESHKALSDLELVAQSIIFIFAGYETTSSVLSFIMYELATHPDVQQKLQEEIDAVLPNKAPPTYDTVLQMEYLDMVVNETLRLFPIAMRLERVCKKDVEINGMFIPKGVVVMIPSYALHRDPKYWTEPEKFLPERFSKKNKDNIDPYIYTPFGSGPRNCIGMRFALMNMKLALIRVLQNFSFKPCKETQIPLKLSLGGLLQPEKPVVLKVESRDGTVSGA
Chain of CYP2C19 (P33261 whole entry): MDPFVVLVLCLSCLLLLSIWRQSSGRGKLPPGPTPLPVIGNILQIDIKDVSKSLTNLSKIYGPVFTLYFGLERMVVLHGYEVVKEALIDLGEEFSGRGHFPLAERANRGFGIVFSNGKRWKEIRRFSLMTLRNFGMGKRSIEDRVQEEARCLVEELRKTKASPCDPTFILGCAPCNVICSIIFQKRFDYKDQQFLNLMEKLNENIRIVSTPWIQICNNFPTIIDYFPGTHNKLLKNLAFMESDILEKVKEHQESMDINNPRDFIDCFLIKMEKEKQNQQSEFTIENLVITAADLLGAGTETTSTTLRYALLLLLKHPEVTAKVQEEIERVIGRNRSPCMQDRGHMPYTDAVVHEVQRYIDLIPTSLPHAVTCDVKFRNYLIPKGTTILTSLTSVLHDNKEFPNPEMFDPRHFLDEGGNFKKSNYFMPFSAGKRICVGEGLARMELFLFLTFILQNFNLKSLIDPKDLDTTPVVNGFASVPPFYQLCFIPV
Chain of CYP4B1 (P13584 whole entry): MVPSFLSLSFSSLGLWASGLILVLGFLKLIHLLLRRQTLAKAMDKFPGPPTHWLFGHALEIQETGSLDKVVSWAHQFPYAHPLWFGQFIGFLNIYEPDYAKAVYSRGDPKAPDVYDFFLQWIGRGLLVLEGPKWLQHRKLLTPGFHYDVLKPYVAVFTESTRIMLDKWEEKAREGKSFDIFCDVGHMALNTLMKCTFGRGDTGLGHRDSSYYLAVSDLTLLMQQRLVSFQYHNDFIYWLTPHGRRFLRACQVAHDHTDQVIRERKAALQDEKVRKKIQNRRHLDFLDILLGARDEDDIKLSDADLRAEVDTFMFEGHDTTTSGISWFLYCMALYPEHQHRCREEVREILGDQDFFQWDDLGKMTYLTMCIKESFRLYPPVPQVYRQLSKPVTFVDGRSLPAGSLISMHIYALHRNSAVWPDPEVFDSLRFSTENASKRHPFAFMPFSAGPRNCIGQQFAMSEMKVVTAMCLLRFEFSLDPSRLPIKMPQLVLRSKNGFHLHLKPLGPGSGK
Chain of CYP2E1 (P05181 whole entry): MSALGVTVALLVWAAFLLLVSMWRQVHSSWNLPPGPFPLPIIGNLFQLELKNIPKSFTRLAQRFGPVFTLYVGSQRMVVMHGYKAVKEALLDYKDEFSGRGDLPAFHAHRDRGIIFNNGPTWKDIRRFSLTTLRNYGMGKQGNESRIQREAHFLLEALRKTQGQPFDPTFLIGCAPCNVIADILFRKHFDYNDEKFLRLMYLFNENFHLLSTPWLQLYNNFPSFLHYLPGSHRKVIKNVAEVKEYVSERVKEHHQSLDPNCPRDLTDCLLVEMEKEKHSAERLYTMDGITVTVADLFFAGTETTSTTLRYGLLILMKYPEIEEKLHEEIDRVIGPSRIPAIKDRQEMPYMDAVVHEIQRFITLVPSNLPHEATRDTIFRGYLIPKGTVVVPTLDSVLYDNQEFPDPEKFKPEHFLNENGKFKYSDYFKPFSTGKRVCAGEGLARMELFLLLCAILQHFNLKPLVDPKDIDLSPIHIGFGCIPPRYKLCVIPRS

role towards CYP1A1 (substrate / inhibitor / inducer) (CYP1A1): Inhibitor
role towards CYP1A2 (substrate / inhibitor / inducer) (CYP1A2): Substrate; also recorded: Inhibitor
role towards CYP1B1 (substrate / inhibitor / inducer) (CYP1B1): Inhibitor
role towards CYP2C8 (substrate / inhibitor / inducer) (CYP2C8): Substrate
role towards CYP2C9 (substrate / inhibitor / inducer) (CYP2C9): Inhibitor; also recorded: Substrate
role towards CYP2C19 (substrate / inhibitor / inducer) (CYP2C19): Substrate
role towards CYP2E1 (substrate / inhibitor / inducer) (CYP2E1): Inhibitor
role towards CYP3A4 (substrate / inhibitor / inducer) (CYP3A4): Inhibitor; also recorded: Substrate
role towards CYP4B1 (substrate / inhibitor / inducer) (CYP4B1): Substrate
role towards CYP4F2 (substrate / inhibitor / inducer) (CYP4F2): Substrate
SMILES: CCCCC/C=C\C/C=C\C/C=C\C/C=C\CCCC(=O)O [Arachidonic acid, arachidonic acid]
